Results on two molecules are retold here after patent publication US20250368667A1, “USP1 INHIBITOR” (Shanghai Qilu Pharmaceutical Research and Development …, priority 2022, published 2025).

The target of series [1] is recombinant human His6-USP1/His6-UAF1 composite protein (Homo sapiens (Human), UniProt O94782). Kind of series: USP1 enzyme activity detection (Ub-Rho fluorescence). The series is classed as biochemical. As to conditions: USP1/UAF1, Ub-Rho substrate 300 nM, 1 hour pre-incubation; read-out: IC50 (enzymatic inhibition of USP1).
Chain of recombinant human His6-USP1/His6-UAF1 composite protein (O94782 whole entry): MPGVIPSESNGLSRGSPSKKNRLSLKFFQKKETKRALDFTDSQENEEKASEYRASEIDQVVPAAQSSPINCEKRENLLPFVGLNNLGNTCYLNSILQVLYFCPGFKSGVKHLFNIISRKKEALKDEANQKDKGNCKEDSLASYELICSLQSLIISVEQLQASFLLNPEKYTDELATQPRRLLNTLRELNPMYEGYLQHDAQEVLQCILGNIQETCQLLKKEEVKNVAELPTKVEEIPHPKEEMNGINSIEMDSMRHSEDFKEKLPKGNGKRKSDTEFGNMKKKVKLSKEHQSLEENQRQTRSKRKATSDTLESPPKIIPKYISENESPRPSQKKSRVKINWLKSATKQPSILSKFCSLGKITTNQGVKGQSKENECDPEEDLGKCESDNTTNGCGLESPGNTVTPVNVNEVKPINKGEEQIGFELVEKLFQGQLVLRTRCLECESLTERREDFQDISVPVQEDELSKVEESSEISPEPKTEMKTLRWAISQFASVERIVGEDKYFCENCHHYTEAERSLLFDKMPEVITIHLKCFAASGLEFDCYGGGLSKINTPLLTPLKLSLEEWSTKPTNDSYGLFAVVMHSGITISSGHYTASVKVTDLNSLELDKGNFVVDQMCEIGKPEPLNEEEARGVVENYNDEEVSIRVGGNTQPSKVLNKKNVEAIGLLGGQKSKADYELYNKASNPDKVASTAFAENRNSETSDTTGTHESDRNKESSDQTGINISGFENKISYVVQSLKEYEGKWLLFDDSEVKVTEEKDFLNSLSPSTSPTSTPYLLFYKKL
Chain of recombinant human His6-USP1/His6-UAF1 composite protein (Q8TAF3 whole entry partner): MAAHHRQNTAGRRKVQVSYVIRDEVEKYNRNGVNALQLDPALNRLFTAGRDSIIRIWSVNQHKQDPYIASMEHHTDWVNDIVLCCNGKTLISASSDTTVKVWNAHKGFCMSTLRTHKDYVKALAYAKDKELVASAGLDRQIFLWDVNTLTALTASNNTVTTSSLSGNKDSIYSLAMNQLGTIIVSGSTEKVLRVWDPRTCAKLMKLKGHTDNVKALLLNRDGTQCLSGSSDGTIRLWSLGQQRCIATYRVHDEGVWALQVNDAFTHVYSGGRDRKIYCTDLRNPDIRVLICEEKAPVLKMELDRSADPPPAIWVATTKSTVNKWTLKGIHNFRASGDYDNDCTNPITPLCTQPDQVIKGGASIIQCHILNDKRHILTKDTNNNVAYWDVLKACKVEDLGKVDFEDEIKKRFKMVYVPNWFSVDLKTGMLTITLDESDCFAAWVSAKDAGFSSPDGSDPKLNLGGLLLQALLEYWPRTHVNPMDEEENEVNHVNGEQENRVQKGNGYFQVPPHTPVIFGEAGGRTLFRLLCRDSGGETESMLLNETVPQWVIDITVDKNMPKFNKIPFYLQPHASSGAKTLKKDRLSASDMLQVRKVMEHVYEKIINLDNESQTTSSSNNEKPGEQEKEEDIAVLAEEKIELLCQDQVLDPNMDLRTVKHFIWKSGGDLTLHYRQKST
Source text: USPli compounds were screened by USP1 enzyme activity detection experiment.
1.1 Experimental materials: recombinant human His6-USP1/His6-UAF1 composite protein. (R&D, catalog number E-568-050): Ubiquitin rhodamine 110 (Ub-Rho) (R&D, catalog number U-555-050); Fluorescent 384-well plate (Perkin Elmer, Art. No. 6007279).
1.2 Test sample: Compounds of table 3 in this application, whose structural formulae and preparation methods are shown in the above examples.
Using Equation (I) to fit data in Excel to obtain the inhibition value;
[formula] • wherein, the maximum signal value represents the luminous signal intensity of the positive control hole without adding the compound of the application; the minimum signal value represents the luminous signal intensity of the negative control hole without enzyme; and the target signal value represents the luminous signal intensity of the Test samples; and • fitting the data in XL-Fit with Equation (II) to obtain IC50 value:
[formula] • wherein Y is the inhibition rate, X is the concentration of the compound; Bottom is the lowest inhibition rate; Top is the highest inhibition rate; and HillSlope is the slope.
Series [2] can be described thus: Pharmacokinetic determination in male Beagle dogs. The series is classed as in vivo. As to conditions: dog, plasma, IV 0.2 mg/kg. Here is the method:
Test Example 4 Pharmacokinetic Determination of Compounds of the Present Application in Male Beagle Dogs
Male Beagle dogs were used as test animals. After intravenous injection and oral administration, plasma samples were collected at specific time points. The concentration of the compound in plasma was detected by LC-MS/MS, and the DMPK parameters were calculated to evaluate the pharmacokinetic characteristics of the compound in dog plasma.
Compounds of Table 6 in this application. […] The structural formula of KSQ-4279 is: […]
Male Beagle dogs having a weight of 9 to 13 kg, supplied by Beijing Mars Biotechnology Co., Ltd.
Administration information of the compound in this application: both group IV (intravenous injection group) and group PO (oral administration group) consist of 3 dogs; for group IV, the dosage was 0.2 mg/kg and the administration volume was 0.5 mL/kg; for group PO, the dosage was 3 mg/kg and the administration volume was 3 mL/kg. The administration solvent was 5 vol % DMSO+10 vol % Solutol (Kolliphor HS 15)+85 vol % Saline (physiological saline).
0.5 mL of blood was collected from the head vein in group IV at 0.083, 0.25, 0.5, 1, 2, 4, 8 and 24 hours respectively after administration, and from the head vein in group PO at 0.25, 0.5, 1, 2, 4, 8 and 24 hours respectively after administration. The collected samples were placed in EDTA-K2 test tube; plasma was separated by centrifuging at 2 to 8° C. and 2000 g for 10 minutes, which was then stored at −80° C. until analysis of the samples.
Dog plasma samples were treated by: • 1) adding 200 μL acetonitrile to 50 μL plasma sample for precipitation, vortex mixing the mixture for 30 seconds, and centrifuging at 4° C. and 3900 rpm for 15 minutes; and • 2) diluting the obtained supernatant with water for 3 folds, and analyzing the concentration of the compounds to be detected by LC/MS/MS.

Series [3] relates to NCI-H1693 cells. Kind of series: USP1 CTG test: NCI-H1693 cell killing experiment. The series is classed as cell-based. As to conditions: Homo sapiens, 144 h, 6 days, CTG detection, read-out: IC50 (inhibition of NCI-H1693 cells). Here is the method: Test Example 2 USP1 CTG Test Method
NCI-H1693 cell killing experiment was used to verify the biological activity of USP1i compound in vitro.
NCI-H1693 cells were purchased from ATCC (article number: CRL-5866) and cultured in a cell incubator with 5% CO2 (containing 5% CO2 and 95% air by volume) at 37° C.; 1640 complete medium: comprising 94 wt % RPMI-1640 liquid medium (Gibco, article number: 11875-093), 5 wt % FBS (Gibco, article number: 10099-141), and 1 wt % Pen Strep (Gibco, article number: 15070-063): Fluorescent 384-well plate (Perkin Elmer, article number: 6007279); Trypsin (Gibco, article number: 25200056); CTG Buffer (CellTiter-Glo® 2.0 Cell Viability Assay, Promega, article number: G9241).
[formula] • X: Log10 (compound complex concentration); • Y: corresponding response;
Top and Bottom: corresponding response corresponding to the same unit of Y; and it is noted that: • if X is not the logarithm of dosage, data shall be returned and converted; • if any baseline response is subtracted, the Bottom is set as a constant value of 0.0; and fitting the data to get the IC50 value; • wherein the fitting conditions may be adjusted according to the specific conditions of the data; specifically, Constraint conditions of Bottom, TOP and HillSlope may be adjusted appropriately so as to achieve the curve that is most in line with the actual situation.

Series [4] is described as follows: Pharmacokinetic determination in male CD1 mice. As to conditions: PO 10 mg/kg, plasma. The class given is in vivo. Here is the method:
Test Example 3 Pharmacokinetic Determination of the Compound of the Present Application in Male CD1 Mice
Male CD1 mice were used as test animals. After intravenous injection and oral administration, plasma samples were collected at specific time points. The concentration of the compound in plasma was detected by LC-MS/MS, and the parameters of drug metabolism and pharmacokinetics (DMPK) were calculated to evaluate the pharmacokinetic characteristics of the compounds in plasma of mice.
Compounds of Table 5 in this application; the structural formula and preparation method of compound 88 are shown in the above examples. The structural formula of comparative compound 1 is: […]
Male CD1 mice having a weight of between 20 g and 30 g; supplied by Vital River.
Administration of the compound in this application: both group IV (intravenous injection group) and group PO (oral administration group) consist of 3 mice; for group IV, the dosage is 1 mg/kg and the administration volume is 5 mL/kg; and for group PO, the dosage is 10 mg/kg and the administration volume is 10 mL/kg. The administration solvent was 5 vol % DMSO+10 vol % Soltol (Kolliphor HS 15)+85 vol % Saline (physiological saline).
• 0.02 to 0.03 mL of blood was collected from the saphenous vein in group IV at 0.083, 0.25, 0.5, 1, 2, 4, 8 and 24 hours after administration and from the saphenous vein in group PO at 0.25, 0.5, 1, 2, 4, 8 and 24 hours after administration. The collected samples were placed in EDTA-K2 test tube; plasma was separated by centrifuging at 4° C. for […], which was then stored at −80° C. until analysis of the samples.
Mice plasma samples were treated by: • 1) adding 200 μL acetonitrile to 10 μL plasma sample for precipitation, vortex mixing the mixture for 30 seconds and centrifuging at 4° C. and 3900 rpm for 15 minutes; and • 2) diluting the obtained supernatant with water for 3 folds, and analyzing the concentration of compounds to be detected by LC/MS/MS.

For the molecule `COc1ncnc(C2CC2)c1-c1ncc2c3cn(C)nc3n(Cc3ccc(-c4nc(C(F)(F)F)cn4C(C)C)cc3)c2n1` [Compound 88, 6-(4-cyclopropyl-6-methoxypyrimidin-5-yl)-8-(4-(1-isopropyl-4-(trifluoromethyl)-1H-imidazol-2-yl)benzyl)-2-methyl-2,8-dihydropyrazolo[4′,3′: 4,5]pyrrolo[2,3-d]pyrimidine], in series [1], the IC50 was found to be 4.5 nM. In series [2], the AUC(0-t) was 236 ng·h/mL. Besides, the clearance in series [2] (read-out: CL (overall clearance rate) (converted)) was 15 mL/min/kg. Also, the IC50 in series [3] is 9.2 nM. In series [4], this molecule yielded a Blood concentration of 4803 and a Curve area of 44062.
Consider `COc1ncnc(C2CC2)c1-c1ncc2c(n1)n(Cc1ccc(-c3nc(C(F)(F)F)cn3C)cc1)c1nccn21` [Comparative compound 1, reference compound], for which the IC50 in series [3] came out at 53.7 nM. In addition, in series [4], the Blood concentration is listed as 2246 and the Curve area is listed as 6558.

In general, IC50 refers to the concentration needed to halve the response being measured. One may read the AUC(0-t) as the area under the concentration-time curve up to a stated or last time point. A lower AUC(0-t) goes with less exposure. For orientation: clearance means a measure of how efficiently the substance is removed, as volume per time.
